Reference: patent US11319324B2, “Pyrazolo-pyrrolo-pyrimidine-dione derivatives as P2X3 inhibitors” (Bayer Aktiengesellschaft, priority 2017, dated 2022)

Tests used:
Type in all cases: cell-based
human P2X3 receptor [1] = target: T1, human P2X3 receptor (Homo sapiens, UniProt P56373); experiment: Intracellular calcium measurement to assess antagonist activity at human P2X3 receptors (hP2X3 CHO), photina luminescence; set-up: expressed in transfected cells; host or cells: Chinese hamster ovary (CHO) cells; conditions: column 2), CHO cells, agonist α,β-methylene-ATP at EC50
T1 sequence (P56373 1-397): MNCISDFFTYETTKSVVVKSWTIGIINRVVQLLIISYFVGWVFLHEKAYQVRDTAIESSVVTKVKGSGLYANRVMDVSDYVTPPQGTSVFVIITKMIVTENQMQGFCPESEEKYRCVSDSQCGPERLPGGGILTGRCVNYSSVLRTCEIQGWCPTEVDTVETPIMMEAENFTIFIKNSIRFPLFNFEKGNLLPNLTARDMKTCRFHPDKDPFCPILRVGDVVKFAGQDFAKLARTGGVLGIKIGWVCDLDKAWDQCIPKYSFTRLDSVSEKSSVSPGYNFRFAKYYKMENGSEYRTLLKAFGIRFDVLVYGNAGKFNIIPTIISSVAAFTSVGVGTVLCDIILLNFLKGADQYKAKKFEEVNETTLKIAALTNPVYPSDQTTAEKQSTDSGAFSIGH
Description: 2) Intracellular Calcium Measurement to Assess Antagonist Activity at Human P2X3 Receptors (hP2X3 CHO)
The determination of antagonistic activity at the P2X3 receptor of the compounds of the invention was performed by use of a recombinant cell line. This cell line derives originally from the Chinese hamster ovary (CHO) cell line (Tjio J. H.; Puck T. T., 1958, J. Exp. Med. 108: 259-271). The cell line is stably transfected with the human P2X3 receptor and a calcium-sensitive photoprotein, mitochondrial photina, which, after reconstitution with the cofactor coelenterazine, emits light in dependence of calcium binding [Bovolenta S, Foti M, Lohmer S, Corazza S., J Biomol Screen. 2007 August; 12(5):694-704]. The strength of the photina luminescence signal corresponds to the level of receptor activation upon agonist binding. An inhibitor would decrease the signal depending on its potency and concentration. Bioluminescence was detected using a suitable luminometer [Milligan G, Marshall F, Rees S, Trends in Pharmacological Sciences 17,235-237 (1996)].
On the day before the assay, the cells were plated out in culture medium (DMEM/F12 (PAN, P04-41451), 10% FCS) in 384-well microtiter plates and kept in a cell incubator (96% humidity, 5% v/v CO2, […]). On the day of the assay medium was replaced by 2 mM Ca-tyrode buffer containing 5 μg/ml coelenterazine. Plates were incubated for 3 hours at 37° C. (96% humidity, 5% v/v CO2). […] The resulting light signal was measured immediately in the luminometer.

human P2X3 receptor [2] = target: T1, human P2X3 receptor; experiment: Intracellular calcium measurement, antagonist activity at human P2X3 receptors (hP2X3 1321N1), Fluo8; set-up: expressed in transfected cells; host or cells: human astrocytoma 1321N1 (1312N1 [sic]); conditions: column 3); 1321N1 cells, human P2X3, Fluo8, agonist ATP at EC50
Description: (§1) 3) And 4) Intracellular Calcium Measurement to Compare Antagonist Activity at Human P2X3 Receptors (hP2X3 1321N1) and at Human P2X2/3 Receptors (hP2X23 1321N1)
(§2) The comparison of antagonistic activity at the P2X3 versus the P2X2/3 receptor of the compounds of the invention were performed by use of recombinant cell lines. These cell lines derived originally from the human astrocytoma cell line […] (Macintyre E H, Pontén J, Vatter A E. Acta Pathol Microbiol Scand A. 1972; 80(2):267-83). The cell lines are stably transfected with the human P2X3 receptor forming homotrimeric P2X3 receptors or are co-transfected with P2X2 and P2X3 forming heterotrimeric P2X2/3 receptors. Stimulation of the receptors with the agonist ATP leads to a conformational change of the receptors and influx of extracellular calcium ions through the open ion channel. The cytoplasmatic calcium transient is detected via the calcium sensitive dye Fluo8. The strength of Fluo8 fluorescence signal corresponds to the level of receptor activation. An inhibitor would decrease the signal depending on its potency and concentration. Fluorescence was measured by use of a suitable fluorescence reader.
(§3) On the day before the assay, the cells were plated in culture medium (DMEM high glucose, 10% FCS, 1% MEM non-essential amino acids, 4 mM Glutamax) in 384-well poly-D-lysine coated microtiter plates and kept in a cell incubator (96% humidity, 5% v/v CO2, 37° C.). On the day of the assay medium was exchanged by Fluo8 containing buffer and incubated for 60 minutes. Test compounds were added at various concentrations and plates were incubated for 10 minutes. In the fluorescence reader a 3 seconds baseline measurement was performed and the agonist ATP was applied at EC50 concentration of the respective receptor during constant fluorescence measurement for 120 seconds.

human P2X2/3 receptors = target: T2, human P2X2/3 receptors (Homo sapiens, UniProt P56373+Q9UBL9); experiment: Intracellular calcium measurement, antagonist activity at human P2X2/3 receptors (hP2X23 1321N1), Fluo8; conditions: for IC50: column 4); 1321N1 cells, human P2X2/3, Fluo8, agonist ATP at EC50; read-out: 4) hP2X2/3 IC50 [nM] (1321N1); for hP2X23/hP2X3* Selectivity (1321N1): ratio of column 4) hP2X2/3 to column 3) hP2X3, 1321N1
T2 construct: expressed in transfected cells; host or cells: human astrocytoma 1321N1 (1312N1 [sic])
T2 sequence (P56373 1-397): T1 sequence (P56373 1-397)
T2 sequence (Q9UBL9 1-471): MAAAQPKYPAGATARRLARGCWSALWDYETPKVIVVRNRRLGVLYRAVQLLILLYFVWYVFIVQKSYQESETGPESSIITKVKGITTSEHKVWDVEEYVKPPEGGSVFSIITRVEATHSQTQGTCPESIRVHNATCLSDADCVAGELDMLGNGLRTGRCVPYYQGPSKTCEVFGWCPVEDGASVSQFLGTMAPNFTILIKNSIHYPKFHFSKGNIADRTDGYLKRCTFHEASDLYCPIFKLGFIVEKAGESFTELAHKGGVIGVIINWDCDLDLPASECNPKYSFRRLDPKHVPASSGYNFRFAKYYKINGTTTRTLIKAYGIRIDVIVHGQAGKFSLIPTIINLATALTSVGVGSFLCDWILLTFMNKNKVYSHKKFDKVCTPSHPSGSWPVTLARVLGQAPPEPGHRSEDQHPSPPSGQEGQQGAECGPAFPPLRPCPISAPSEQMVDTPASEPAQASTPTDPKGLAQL
Description: as §1, §2, §3

| SMILES | IC50 (human P2X3 receptor [1]) [nM] | IC50 (human P2X3 receptor [2]) [nM] | IC50 (human P2X2/3 receptors) [nM] | hP2X23/hP2X3* Selectivity (1321N1) (human P2X2/3 receptors) |
| --- | --- | --- | --- | --- |
| O=C(Cn1c2c(c(=O)n3nc(C4CCOCC4)cc13)CN(C1CCCC1)C2=O)Nc1ccc(F)cn1 [Example 92] | 64 | 26 | 5050 | 192 |
| COC[C@H](C)N1Cc2c(n(CC(=O)Nc3ccc(F)cn3)c3cc(Cl)nn3c2=O)C1=O [Example 102] | 114 | 81 | > 22500 | >278 |
| COC[C@H](C)N1Cc2c(n(CC(=O)Nc3ccc(F)cn3)c3cc(C(=O)N4CCOCC4)nn3c2=O)C1=O [Example 191] | 29 | 27 | > 32000 | >1199 |
| CC(C)N1Cc2c(n(CC(=O)Nc3ccc(F)cn3)c3cc(C4=CCN(C(=O)OC(C)(C)C)C4)nn3c2=O)C1=O [Example 142, tert-butyl 3-[4-{2-[(5-fluoropyridin-2-yl)amino]-2-oxoethyl}-5,8-dioxo-6-(propan-2-yl)-5,6,7,8-tetrahydro-4H-pyrazolo[1,5-a]pyrrolo[3,4-d]pyrimidin-2-yl]-2,5-dihydro-1H-pyrrole-1-carboxylate] | 11 | 7 | 1140 | 165 |
| CC(C)N1Cc2c(n(CC(=O)Nc3ccc(F)cn3)c3cc(C4CCN(C)C4)nn3c2=O)C1=O (racemic) [Example 249, N-(5-fluoropyridin-2-yl)-2-{2-[(±)-1-methylpyrrolidin-3-yl]-5,8-dioxo-6-(propan-2-yl)-5,6,7,8-tetrahydro-4H-pyrazolo[1,5-a]pyrrolo[3,4-d]pyrimidin-4-yl}acetamide] | 305 | 109 | 9200 | 85 |
| CCc1cc2n(CC(=O)Nc3ccc(F)cn3)c3c(c(=O)n2n1)CN(C[C@H]1CN(C(=O)OC(C)(C)C)CCO1)C3=O [Example 86, tert-butyl(2S)-2-{[2-ethyl-4-{2-[(5-fluoropyridin-2-yl)amino]-2-oxoethyl}-5,8-dioxo-5,8-dihydro-4H-pyrazolo[1,5-a]pyrrolo[3,4-d]pyrimidin-6(7H)-yl]methyl}morpholine-4-carboxylate] | 70 | 140 | 2350 | 17 |
| COC[C@H](C)N1Cc2c(n(CC(=O)Nc3ccc(F)cn3)c3cc(C(=O)NC4CC4)nn3c2=O)C1=O [Example 192] | 56 | 37 | > 19600 | >530 |
| CC(C)N1Cc2c(n(CC(=O)Nc3ccc(F)cn3)c3cc(C4CCNCC4)nn3c2=O)C1=O.Cl [Example 234, 2-[5,8-dioxo-2-(piperidin-4-yl)-6-(propan-2-yl)-5,6,7,8-tetrahydro-4H-pyrazolo[1,5-a]pyrrolo[3,4-d]pyrimidin-4-yl]-N-(5-fluoropyridin-2-yl)acetamide hydrochloride (1:1)] | 125 | 370 | > 32000 | >86 |
| CC(C)N1Cc2c(n(CC(=O)Nc3ccc(F)cn3)c3cc(C(=O)N4CCOCC4)nn3c2=O)C1=O [Example 225, N-(5-fluoropyridin-2-yl)-2-[2-(morpholin-4-ylcarbonyl)-5,8-dioxo-6-(propan-2-yl)-5,6,7,8-tetrahydro-4H-pyrazolo[1,5-a]pyrrolo[3,4-d]pyrimidin-4-yl]acetamide] | 37 | 67 | > 32000 | >481 |
| CC(C)N1Cc2c(n(CC(=O)Nc3ccc(F)cn3)c3cc(C4CCNC4)nn3c2=O)C1=O.Cl (racemic) [Example 235, 2-{5,8-dioxo-6-(propan-2-yl)-2-[(±)-pyrrolidin-3-yl]-5,6,7,8-tetrahydro-4H-pyrazolo[1,5-a]pyrrolo[3,4-d]pyrimidin-4-yl}-N-(5-fluoropyridin-2-yl)acetamide hydrochloride (1:1)] | 155 | 340 | > 66000 | >194 |
| CCc1cc2n(CC(=O)Nc3ccc(F)cn3)c3c(c(=O)n2n1)CN(C(C)(C)COCc1ccccc1)C3=O [Example 120, 2-{6-[1-(benzyloxy)-2-methylpropan-2-yl]-2-ethyl-5,8-dioxo-5,6,7,8-tetrahydro-4H-pyrazolo[1,5-a]pyrrolo[3,4-d]pyrimidin-4-yl}-N-(5-fluoropyridin-2-yl)acetamide] | 5 |  | 345 |  |
| COC[C@H](C)N1Cc2c(n(CC(=O)Nc3ccc(F)cn3)c3cc(-c4ncccc4C)nn3c2=O)C1=O [Example 164] | 20 |  | 3700 |  |
| Cc1ccc(-c2cc3n(CC(=O)Nc4ccc(F)cn4)c4c(c(=O)n3n2)CN([C@H]2CCOC2)C4=O)nc1 [Example 161, N-(5-fluoropyridin-2-yl)-2-{2-(5-methylpyridin-2-yl)-5,8-dioxo-6-[(3S)-oxolan-3-yl]-5,6,7,8-tetrahydro-4H-pyrazolo[1,5-a]pyrrolo[3,4-d]pyrimidin-4-yl}acetamide] | 24 |  | 1350 |  |
| CC(C)N1Cc2c(n(CC(=O)Nc3ccc(F)cn3)c3cc(C(=O)Nc4cccnc4)nn3c2=O)C1=O [Example 207] | 17 |  | 2680 |  |
| COC[C@H](C)N1Cc2c(n(CC(=O)Nc3ccc(F)cn3)c3cc(C(=O)N(C)Cc4cccnc4)nn3c2=O)C1=O [Example 218] | 15 |  | 11500 |  |
| COC[C@H](C)N1Cc2c(n(CC(=O)Nc3ccc(F)cn3)c3cc(-c4ccc(C)cn4)nn3c2=O)C1=O [Example 162] | 6 |  | 1200 |  |
| CCc1cc2n(CC(=O)Nc3ccc(F)cn3)c3c(c(=O)n2n1)CN(Cc1ccc(C)nc1)C3=O [Example 117] | 27 |  | 6150 |  |
| CC(C)N1Cc2c(n(CC(=O)Nc3ccc(F)cn3)c3cc(C4CCC(=O)N4C)nn3c2=O)C1=O (racemic) [Example 231, N-(5-fluoropyridin-2-yl)-2-{2-[(±)-1-methyl-5-oxopyrrolidin-2-yl]-5,8-dioxo-6-(propan-2-yl)-5,6,7,8-tetrahydro-4H-pyrazolo[1,5-a]pyrrolo[3,4-d]pyrimidin-4-yl}acetamide] | 95 |  | > 23500 |  |
